We go through three compounds from PMC4672351, “Drug-Drug Interaction Potentials of Tyrosine Kinase Inhibitors via Inhibition of UDP-Glucuronosyltransferases” (Scientific Reports, 2015).

One series deals with T1, UGT1A4 (Homo sapiens, UniProt P22310).
T1 sequence (P22310 29-534): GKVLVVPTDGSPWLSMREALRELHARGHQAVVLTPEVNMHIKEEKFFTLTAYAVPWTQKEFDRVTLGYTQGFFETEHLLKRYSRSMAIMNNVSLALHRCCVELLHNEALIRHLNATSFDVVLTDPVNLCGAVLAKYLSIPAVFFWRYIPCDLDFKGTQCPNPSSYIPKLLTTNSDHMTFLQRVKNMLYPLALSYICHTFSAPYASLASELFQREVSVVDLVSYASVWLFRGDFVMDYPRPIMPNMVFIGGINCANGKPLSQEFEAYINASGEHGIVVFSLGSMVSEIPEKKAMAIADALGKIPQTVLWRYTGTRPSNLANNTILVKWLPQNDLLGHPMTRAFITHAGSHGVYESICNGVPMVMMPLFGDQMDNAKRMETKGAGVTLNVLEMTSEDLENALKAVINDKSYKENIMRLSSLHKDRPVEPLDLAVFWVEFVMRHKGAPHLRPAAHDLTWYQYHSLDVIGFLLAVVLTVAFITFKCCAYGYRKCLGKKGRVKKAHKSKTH
Kind of series: Inhibition of TFP glucuronidation by recombinant UGT1A4. The conditions noted are these: 100 μM inhibitor; TFP substrate; positive control hecogenin.

Another series deals with T2, UGT1A6 (Homo sapiens, UniProt P19224).
T2 construct: purchased BD Gentest (Woburn, MA); host or cells: baculovirus-infected insect cells
T2 sequence (P19224 27-532): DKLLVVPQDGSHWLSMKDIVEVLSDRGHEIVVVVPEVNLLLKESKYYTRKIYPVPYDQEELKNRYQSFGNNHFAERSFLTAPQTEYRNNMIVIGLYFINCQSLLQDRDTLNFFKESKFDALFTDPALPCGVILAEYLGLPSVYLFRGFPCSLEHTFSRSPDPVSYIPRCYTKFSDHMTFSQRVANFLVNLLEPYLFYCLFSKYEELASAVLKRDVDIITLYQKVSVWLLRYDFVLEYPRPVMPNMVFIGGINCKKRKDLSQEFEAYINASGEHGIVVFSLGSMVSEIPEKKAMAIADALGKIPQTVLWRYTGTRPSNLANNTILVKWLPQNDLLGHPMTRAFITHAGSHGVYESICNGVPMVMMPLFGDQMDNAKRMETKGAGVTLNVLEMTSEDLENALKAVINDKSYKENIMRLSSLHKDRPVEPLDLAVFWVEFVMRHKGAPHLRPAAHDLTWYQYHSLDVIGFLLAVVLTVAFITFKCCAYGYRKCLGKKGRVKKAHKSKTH
In words: Inhibition of 4-MU glucuronidation by recombinant UGT1A6. The conditions noted are these: recombinant UGT1A6, pH 7.4, probe 4-MU, 100 μM inhibitor, 4-MU substrate, positive control diclofenac, read-out: Remaining activities (%) of UGT1A6. In kind it is in vitro ADME.

A further series has as its target T3, UGT1A9 (Homo sapiens, UniProt O60656).
T3 sequence (O60656 26-530): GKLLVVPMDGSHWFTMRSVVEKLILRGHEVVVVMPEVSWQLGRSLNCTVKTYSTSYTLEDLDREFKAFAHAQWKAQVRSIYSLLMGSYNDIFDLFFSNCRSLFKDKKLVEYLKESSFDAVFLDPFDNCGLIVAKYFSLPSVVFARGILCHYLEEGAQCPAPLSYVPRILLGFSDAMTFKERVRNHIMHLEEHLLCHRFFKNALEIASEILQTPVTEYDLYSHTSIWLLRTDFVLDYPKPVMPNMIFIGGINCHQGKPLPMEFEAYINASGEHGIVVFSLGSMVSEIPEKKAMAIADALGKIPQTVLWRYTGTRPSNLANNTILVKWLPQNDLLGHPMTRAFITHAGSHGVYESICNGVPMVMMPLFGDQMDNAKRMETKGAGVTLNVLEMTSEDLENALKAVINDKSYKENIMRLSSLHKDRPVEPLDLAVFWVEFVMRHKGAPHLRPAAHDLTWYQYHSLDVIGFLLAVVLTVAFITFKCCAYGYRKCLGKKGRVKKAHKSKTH
Kind of series: in vitro. The conditions noted are these: recombinant UGT1A9, pH 7.4, probe 4-MU.

The next series deals with T4, UGT1A1 (Homo sapiens, UniProt P22309).
T4 sequence (P22309 26-533): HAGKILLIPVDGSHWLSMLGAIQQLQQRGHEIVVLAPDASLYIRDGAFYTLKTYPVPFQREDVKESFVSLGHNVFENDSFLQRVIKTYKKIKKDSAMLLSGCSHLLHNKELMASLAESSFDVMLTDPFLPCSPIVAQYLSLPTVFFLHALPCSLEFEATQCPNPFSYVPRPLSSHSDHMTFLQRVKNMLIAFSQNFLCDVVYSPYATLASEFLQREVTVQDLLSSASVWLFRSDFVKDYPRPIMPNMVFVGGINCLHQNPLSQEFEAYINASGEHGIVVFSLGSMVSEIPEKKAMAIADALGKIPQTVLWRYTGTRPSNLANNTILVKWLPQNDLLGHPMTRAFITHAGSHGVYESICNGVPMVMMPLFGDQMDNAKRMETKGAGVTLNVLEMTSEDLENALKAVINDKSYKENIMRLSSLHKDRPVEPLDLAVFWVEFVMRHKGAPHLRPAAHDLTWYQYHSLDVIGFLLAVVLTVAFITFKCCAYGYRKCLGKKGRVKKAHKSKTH
In words: Inhibition of 4-MU glucuronidation by recombinant UGT1A1. The conditions noted are these: human, recombinant UGT1A1, pH 7.4, probe 4-MU.

A further series concerns the target T5, UGT1A7 (Homo sapiens, UniProt Q9HAW7).
T5 sequence (Q9HAW7 26-530): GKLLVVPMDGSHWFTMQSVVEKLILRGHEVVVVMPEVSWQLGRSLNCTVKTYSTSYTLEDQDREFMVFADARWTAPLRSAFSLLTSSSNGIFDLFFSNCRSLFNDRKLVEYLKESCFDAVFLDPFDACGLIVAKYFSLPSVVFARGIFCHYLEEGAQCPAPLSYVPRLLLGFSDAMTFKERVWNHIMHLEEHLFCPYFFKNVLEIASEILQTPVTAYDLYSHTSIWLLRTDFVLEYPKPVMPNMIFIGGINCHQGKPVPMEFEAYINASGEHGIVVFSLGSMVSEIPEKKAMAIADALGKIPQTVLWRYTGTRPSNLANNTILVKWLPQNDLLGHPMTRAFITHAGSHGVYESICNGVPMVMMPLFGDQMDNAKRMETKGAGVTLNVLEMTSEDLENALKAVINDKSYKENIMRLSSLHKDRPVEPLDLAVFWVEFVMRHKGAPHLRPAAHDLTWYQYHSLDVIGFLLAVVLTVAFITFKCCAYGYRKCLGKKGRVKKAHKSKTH
Kind of series: Inhibition of 4-MU glucuronidation by recombinant UGT1A7. The conditions noted are these: human, recombinant UGT1A7, pH 7.4, probe 4-MU.

In another series the target is T6, UGT1A8 (Homo sapiens, UniProt Q9HAW9).
T6 sequence (Q9HAW9 26-530): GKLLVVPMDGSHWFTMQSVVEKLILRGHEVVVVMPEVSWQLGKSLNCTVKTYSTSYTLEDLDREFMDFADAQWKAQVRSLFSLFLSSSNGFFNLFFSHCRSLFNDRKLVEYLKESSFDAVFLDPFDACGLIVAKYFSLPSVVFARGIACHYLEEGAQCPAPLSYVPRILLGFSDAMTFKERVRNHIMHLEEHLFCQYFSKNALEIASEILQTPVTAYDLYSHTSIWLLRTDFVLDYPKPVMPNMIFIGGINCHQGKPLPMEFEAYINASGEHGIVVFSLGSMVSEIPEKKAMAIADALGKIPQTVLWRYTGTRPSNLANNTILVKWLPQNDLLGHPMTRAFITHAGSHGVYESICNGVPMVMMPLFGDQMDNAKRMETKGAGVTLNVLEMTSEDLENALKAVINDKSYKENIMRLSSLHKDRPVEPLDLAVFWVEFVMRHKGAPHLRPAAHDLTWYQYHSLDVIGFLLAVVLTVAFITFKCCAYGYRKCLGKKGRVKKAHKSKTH
In words: Inhibition of 4-MU glucuronidation by recombinant UGT1A8. The conditions noted are these: recombinant UGT1A8, pH 7.4, probe 4-MU.

The next series has as its target T7, UGT1A10 (Homo sapiens, UniProt Q9HAW8).
T7 sequence (Q9HAW8 26-530): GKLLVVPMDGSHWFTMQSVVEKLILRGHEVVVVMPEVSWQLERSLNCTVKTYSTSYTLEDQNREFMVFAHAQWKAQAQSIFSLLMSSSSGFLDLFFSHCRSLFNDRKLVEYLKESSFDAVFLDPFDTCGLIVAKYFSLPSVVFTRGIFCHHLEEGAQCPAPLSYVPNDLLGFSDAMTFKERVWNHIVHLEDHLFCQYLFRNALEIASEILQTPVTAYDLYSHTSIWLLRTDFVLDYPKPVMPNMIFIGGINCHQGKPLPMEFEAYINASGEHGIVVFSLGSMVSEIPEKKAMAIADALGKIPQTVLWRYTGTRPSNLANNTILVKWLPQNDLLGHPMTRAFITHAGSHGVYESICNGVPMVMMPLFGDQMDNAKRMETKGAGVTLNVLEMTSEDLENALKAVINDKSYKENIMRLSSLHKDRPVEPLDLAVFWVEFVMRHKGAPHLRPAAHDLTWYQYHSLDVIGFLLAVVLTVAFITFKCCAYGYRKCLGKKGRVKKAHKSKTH
In words: Inhibition of 4-MU glucuronidation by recombinant UGT1A10. The conditions noted are these: recombinant UGT1A10, pH 7.4, probe 4-MU.

For hecogenin, the “Remaining activities (%) of UGT1A4” value on UGT1A4 was found to be 20.3 ± 6.6%.
Take `O=C(O)Cc1ccccc1Nc1c(Cl)cccc1Cl` [diclofenac]: the activity at 30 min, 100 µM on UGT1A6 is 28.2 ± 10%; on UGT1A9, 15.2 ± 1.2%; on UGT1A7, 25.6 ± 11.2%. In addition, the activity at 120 min, 100 µM on UGT1A1 was determined as 37 ± 2.1%.
Regarding `CCCCC1C(=O)N(c2ccccc2)N(c2ccccc2)C1=O` [phenylbutazone], the activity at 30 min, 100 µM at UGT1A8 came out at 40.2 ± 5.3%. In addition, the activity at 120 min, 100 µM at UGT1A10 amounted to 37.8 ± 8%.
